Experimental data taken from US9624229B2, “Pyrimidine-2-amine compounds and their use as inhibitors of JAK kinases” (Rigel Pharmaceuticals, Inc., priority 2008, dated 2017).

target: Ba/F3 V617F cells (Homo sapiens, UniProt O60674, V617F, cells depend on it); test: Proliferation assay (Cell Titer-Glo, 72 h) utilizing Ba/F3 V617F cells; assay type: cell-based, mouse; details: Ba/F3 V617F cells, proliferation, level of activity given as class symbol, read-out: IC50 (the source's name)
Summary of the method: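 Readout is CellTiter-Glo luminescence after 72 h at 37 °C, giving IC50. Cells: Ba/F3 V617F, 1×10^5 cells/mL in RPMI with 10% FBS, treated in duplicate with 3-fold dilution series made from 5 mM DMSO stock, 1:250 in 5% FBS medium, added at 2×.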

Sequence of Ba/F3 V617F cells (O60674 whole entry V617F): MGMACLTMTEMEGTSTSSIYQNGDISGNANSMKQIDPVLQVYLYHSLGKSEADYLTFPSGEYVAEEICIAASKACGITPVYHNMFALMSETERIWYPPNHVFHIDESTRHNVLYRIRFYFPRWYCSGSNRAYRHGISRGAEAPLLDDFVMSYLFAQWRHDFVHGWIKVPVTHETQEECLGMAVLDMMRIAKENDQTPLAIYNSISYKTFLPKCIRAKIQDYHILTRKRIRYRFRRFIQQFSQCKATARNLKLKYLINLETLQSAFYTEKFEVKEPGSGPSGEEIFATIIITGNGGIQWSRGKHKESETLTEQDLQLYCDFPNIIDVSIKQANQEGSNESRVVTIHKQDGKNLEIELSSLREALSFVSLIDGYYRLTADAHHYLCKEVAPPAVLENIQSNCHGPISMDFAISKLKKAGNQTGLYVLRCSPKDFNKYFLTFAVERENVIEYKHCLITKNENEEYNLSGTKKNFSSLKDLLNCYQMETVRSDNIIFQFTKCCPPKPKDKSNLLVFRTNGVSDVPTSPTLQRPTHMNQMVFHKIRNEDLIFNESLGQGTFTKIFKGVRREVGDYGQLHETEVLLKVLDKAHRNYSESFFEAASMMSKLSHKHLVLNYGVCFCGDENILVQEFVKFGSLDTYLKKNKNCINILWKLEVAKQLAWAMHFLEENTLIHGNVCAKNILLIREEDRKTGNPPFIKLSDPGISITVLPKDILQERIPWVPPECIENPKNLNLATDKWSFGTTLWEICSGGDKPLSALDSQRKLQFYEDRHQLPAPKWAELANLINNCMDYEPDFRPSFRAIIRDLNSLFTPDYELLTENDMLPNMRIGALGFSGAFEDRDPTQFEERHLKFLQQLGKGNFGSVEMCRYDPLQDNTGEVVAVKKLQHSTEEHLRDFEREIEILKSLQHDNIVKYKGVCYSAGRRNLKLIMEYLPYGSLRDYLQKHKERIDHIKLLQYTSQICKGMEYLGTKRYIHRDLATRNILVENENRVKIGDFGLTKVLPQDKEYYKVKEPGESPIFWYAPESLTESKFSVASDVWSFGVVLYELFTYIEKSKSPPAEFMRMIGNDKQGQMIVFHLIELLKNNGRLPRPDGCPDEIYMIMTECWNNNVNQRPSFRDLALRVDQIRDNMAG

Q: With `CC1(C)Oc2cc(-c3ccnc(Nc4ccc(C5CC6CC5CN6S(C)(=O)=O)cc4)n3)cnc2NC1=O` (stereo not shown) [compound 226, 4-(2,2-dimethyl-3-oxo-3,4-dihydro-2H-pyrido[3,2-b][1,4]oxazin-7-yl)-N-(4-(2-methylsulfonyl-2-azabicyclo[2.2.1]heptan-5-yl)phenyl)pyrimidin-2-amine] as the molecule, how does the GI50 read?
A: 1 to 10 µM

Q: `Cc1cc(Nc2nccc(-c3ccc(N4CCSCC4)nc3)n2)ccc1N1C[C@@H]2C[C@H]1CN2C` [compound 230, 4-(6-(thiamorpholin-4-yl)pyridin-3-yl)-N-(3-methyl-4-((1S,4S)-5-methyl-2,5-diazabicyclo[2.2.1]heptan-2-yl)phenyl)pyrimidin-2-amine] was tested. Which GI50 did it give?
A: < 1 µM

Q: With `CC(=O)N1C[C@@H]2C[C@H]1CN2c1ccc(Nc2nccc(-c3ccc(OC4CCOCC4)nc3)n2)cc1Cl` [compound 260, 4-(6-(tetrahydropyran-4-yloxy)pyridin-3-yl)-N-(3-chloro-4-((1S,4S)-5-acetyl-2,5-diazabicyclo[2.2.1]heptan-2-yl)phenyl)pyrimidin-2-amine] as the molecule, how does the GI50 read?
A: 1 to 10 µM

Q: How did the GI50 turn out when `Cc1cc(Nc2nccc(-c3ccc(N4CCOCC4)nc3)n2)ccc1N1C[C@@H]2C[C@H]1CN2C1CC1` [compound 254, 4-(6-(morpholin-4-yl)pyridin-3-yl)-N-(3-methyl-4-((1S,4S)-5-cyclopropyl-2,5-diazabicyclo[2.2.1]heptan-2-yl)phenyl)pyrimidin-2-amine] was run?
A: < 1 µM

Q: `Cc1cc(Nc2nccc(-c3ccc4c(c3)CCCC(=O)N4)n2)ccc1N1C[C@@H]2C[C@H]1CN2S(C)(=O)=O` [compound 243, 4-(2-oxo-2,3,4,5-tetrahydro-1H-benzo[b]azepin-7-yl)-N-(3-methyl-4-((1S,4S)-5-methylsulfonyl-2,5-diazabicyclo[2.2.1]heptan-2-yl)phenyl)pyrimidin-2-amine] was tested. Which GI50 did it give?
A: < 1 µM

Q: With `Cc1cc(Nc2nccc(-c3ccc(N4CCOCC4)nc3)n2)ccc1N1C[C@@H]2C[C@H]1CN2CC(C)C` [compound 205, 4-(6-(morpholin-4-yl)pyridin-3-yl)-N-(3-methyl-4-((1S,4S)-5-isobutyl-2,5-diazabicyclo[2.2.1]heptan-2-yl)phenyl)pyrimidin-2-amine] as the molecule, how does the GI50 read?
A: < 1 µM

Q: How did the GI50 turn out when `CC(=O)N1C[C@@H]2C[C@H]1CN2c1ccc(Nc2nccc(-c3ccc(N4CCOCC4)nc3)n2)cc1Cl` [compound 259, 4-(6-(morpholin-4-yl)pyridin-3-yl)-N-(3-chloro-4-((1S,4S)-5-acetyl-2,5-diazabicyclo[2.2.1]heptan-2-yl)phenyl)pyrimidin-2-amine] was run?
A: < 1 µM

Q: Which GI50 does the source give for `CC(=O)N1C[C@@H]2C[C@H]1CN2c1ccc(Nc2nccc(-c3cnc4c(c3)OC(C)(C)C(=O)N4)n2)cc1C` [compound 251, 4-(2,2-dimethyl-3-oxo-3,4-dihydro-2H-pyrido[3,2-b][1,4]oxazin-7-yl)-N-(3-methyl-4-((1S,4S)-5-acetyl-2,5-diazabicyclo[2.2.1]heptan-2-yl)phenyl)pyrimidin-2-amine] here?
A: < 1 µM

Q: How did the GI50 turn out when `CN1CC2(C)CN(c3ccc(Nc4nccc(-c5cnc6c(c5)OC(C)(C)C(=O)N6)n4)cc3F)CC(C)(C1)C2` [compound 208, 4-(2,2-dimethyl-3-oxo-3,4-dihydro-2H-pyrido[3,2-b][1,4]oxazin-7-yl)-N-(3-fluoro-4-(1,5,7-trimethyl-3,7-diazabicyclo[3.3.1]nonan-3-yl)phenyl)pyrimidin-2-amine] was run?
A: 1 to 10 µM

same assay, conditions: Ba/F3 V617F cells, proliferation, level of activity to inhibit JAK2, read-out: IC50 (the source's name)

Q: With `Cc1cc(Nc2nccc(-c3ccc4c(c3)CC(=O)N4)n2)ccc1N1CCN2CCC1C2` (stereo not shown) [compound 121, 4-(2-oxoindolin-5-yl)-N-(3-methyl-4-(1,4-diazabicyclo[3.2.1]octan-4-yl)phenyl)pyrimidin-2-amine] as the molecule, how does the GI50 read?
A: < 1 µM

Q: With `Cc1cc(Nc2nccc(-c3ccc(C#N)nc3)n2)ccc1N1C[C@@H]2C[C@H]1CN2C` [compound 111, 4-(6-cyanopyridin-3-yl)-N-(3-methyl-4-((1S,4S)-5-methyl-2,5-diazabicyclo[2.2.1]heptan-2-yl)phenyl)pyrimidin-2-amine] as the molecule, how does the GI50 read?
A: 1 to 10 µM

Q: For `Cc1cc(Nc2nccc(-c3ccc(N4C[C@@H]5C[C@H]4CN5C)nc3)n2)ccc1N1CCN(C)CC1` [compound 12, 4-(6-((1S,4S)-5-methyl-2,5-diazabicyclo-[2.2.1]-heptan-2-yl)pyridin-3-yl)-N-(3-methyl-4-(4-methyl-piperazin-1-yl)phenyl)-pyrimidin-2-amine], which GI50 is on record?
A: 1 to 10 µM

Q: For `COc1ccc2cc(-c3ccnc(Nc4ccc(N5C[C@@H]6C[C@H]5CN6C)c(C)c4)n3)[nH]c2c1` [compound 105, 4-(6-methoxy-1H-indol-2-yl)-N-(3-methyl-4-((1S,4S)-5-methyl-2,5-diazabicyclo[2.2.1]heptan-2-yl)phenyl)pyrimidin-2-amine], which GI50 is on record?
A: < 1 µM

Q: How did the GI50 turn out when `Cc1cc(-c2ccnc(Nc3ccc(N4CC5(C)CN(C)CC(C)(C4)C5)c(F)c3)n2)cnc1N1CCOCC1` [compound 82, 4-(5-methyl-6-(morpholin-4-yl)pyridin-3-yl)-N-(3-fluoro-4-(1,5,7-trimethyl-3,7-diazabicyclo[3.3.1]nonan-3-yl)phenyl)pyrimidin-2-amine] was run?
A: < 1 µM

Q: Which GI50 does the source give for `CN1C[C@@H]2C[C@H]1CN2c1ccc(Nc2nccc(-c3ccc(N4CCOCC4)nc3)n2)cc1` [compound 184, 4-(6-(morpholin-4-yl)pyridin-3-yl)-N-(4-((1S,4S)-5-methyl-2,5-diazabicyclo[2.2.1]heptan-2-yl)phenyl)pyrimidin-2-amine] here?
A: < 1 µM

Q: For `CN(C)c1nc(-c2ccnc(Nc3ccc(N4C[C@@H]5C[C@H]4CN5C)c(F)c3)n2)cs1` [compound 176, 4-(2-(dimethylamino)thiazol-4-yl)-N-(3-fluoro-4-((1S,4S)-5-methyl-2,5-diazabicyclo[2.2.1]heptan-2-yl)phenyl)pyrimidin-2-amine], which GI50 is on record?
A: 1 to 10 µM

Q: For `CN1CCOc2cc(-c3ccnc(Nc4ccc(N5C[C@@H]6C[C@H]5CN6C)cc4)n3)cnc21` [compound 185, 4-(4-methyl-3,4-dihydro-2H-pyrido[3,2-b][1,4]oxazin-7-yl)-N-(4-((1S,4S)-5-methyl-2,5-diazabicyclo[2.2.1]heptan-2-yl)phenyl)pyrimidin-2-amine], which GI50 is on record?
A: < 1 µM

Q: With `Cc1cc(Nc2nccc(-c3ccc(N)nc3)n2)ccc1N1C[C@@H]2C[C@H]1CN2S(C)(=O)=O` [compound 150, 4-(6-aminopyridin-3-yl)-N-(3-methyl-4-((1S,4S)-5-methylsulfonyl-2,5-diazabicyclo[2.2.1]heptan-2-yl)phenyl)pyrimidin-2-amine] as the molecule, how does the GI50 read?
A: < 1 µM

Q: `CN1C[C@@H]2C[C@H]1CN2c1ccc(Nc2nccc(-c3ccc(N4CCOCC4)nc3)n2)cc1C(F)(F)F` [compound 97, 4-(6-(morpholin-4-yl)pyridin-3-yl)-N-(3-trifluoromethyl-4-((1S,4S)-5-methyl-2,5-diazabicyclo[2.2.1]heptan-2-yl)phenyl)pyrimidin-2-amine] was tested. Which GI50 did it give?
A: < 1 µM

Q: How did the GI50 turn out when `Cc1cc(Nc2nccc(-c3ccc(N4CCOCC4)nc3)n2)ccc1N1CCN2CCC1CC2` [compound 159, 4-(6-(morpholin-4-yl)pyridin-3-yl)-N-(3-methyl-4-(1,4-diazabicyclo[3.2.2]nonan-4-yl)phenyl)pyrimidin-2-amine] was run?
A: < 1 µM

Q: `Cc1cc(Nc2nccc(-c3cnc4c(c3)OC(C)(C)C(=O)N4)n2)ccc1N1CC2CCC(C1)N2C` [compound 165, 4-(2,2-dimethyl-3-oxo-3,4-dihydro-2H-pyrido[3,2-b][1,4]oxazin-7-yl)-N-(3-methyl-4-(8-methyl-3,8-diazabicyclo[3.2.1]octan-3-yl)phenyl)pyrimidin-2-amine] was tested. Which GI50 did it give?
A: < 1 µM

Q: Which GI50 does the source give for `CN1C[C@@H]2C[C@H]1CN2c1ccc(Nc2nccc(-c3ccc(NCCN4CCOCC4)nc3)n2)cc1` [compound 69, 4-(6-(2-(morpholin-4-yl)ethyl)aminopyridin-3-yl)-N-(4-((1S,4S)-5-methyl-2,5-diazabicyclo[2.2.1]heptan-2-yl)phenyl)pyrimidin-2-amine] here?
A: 1 to 10 µM

Q: How did the GI50 turn out when `Cc1cc(Nc2nccc(-c3cnc4c(c3)OC3(CCC3)C(=O)N4)n2)ccc1N1C[C@@H]2C[C@H]1CN2C` [compound 31, 4-(3′-oxo-3,4′-dihydrospiro[cyclobutane-1,2′-pyrido[3,2-b][1,4]oxazine]-7-yl)-N-(3-methyl-4-((1S,4S)-5-methyl-2,5-diazabicyclo[2.2.1]heptan-2-yl)phenyl)pyrimidin-2-amine] was run?
A: < 1 µM

Q: With `Cc1cc(Nc2nccc(-c3ccc4c(c3)CC(=O)N4)n2)ccc1N1C[C@@H]2C[C@H]1CN2C` [compound 113, 4-(2-oxoindolin-5-yl)-N-(3-methyl-4((1S,4S)-5-methyl-2,5-diazabicyclo[2.2.1]heptan-2-yl)phenyl)pyrimidin-2-amine] as the molecule, how does the GI50 read?
A: < 1 µM

Q: Which GI50 does the source give for `Cc1cc(Nc2nccc(-c3cnc4[nH]ccc4c3)n2)ccc1N1C[C@@H]2C[C@H]1CO2` [compound 33, 4-(1H-pyrrolo[2,3-b]pyridin-5-yl)-N-(3-methyl-4-((1S,4S)-5-oxa-2-azabicyclo[2.2.1]heptan-2-yl)phenyl)pyrimidin-2-amine] here?
A: < 1 µM

same assay, conditions: inhibition of JAK2 activity, proliferation of Ba/F3 V617F cells, read-out: IC50 (the source's name)

Q: How did the GI50 turn out when `Cc1cc(Nc2nccc(-c3ccc(NC(=O)NC4CC4)cc3)n2)cnc1N1C[C@@H]2C[C@H]1CN2C` [compound 140, 4-(4-(3-cyclopropylureido)phenyl)-N-(5-methyl-6-((1S,4S)-5-methyl-2,5-diazabicyclo[2.2.1]heptan-2-yl)pyridin-3-yl)pyrimidin-2-amine] was run?
A: 1 to 10 µM

Q: With `Cc1cc(Nc2nccc(-c3ccc(N(C)C)nc3)n2)cnc1N1C[C@@H]2C[C@H]1CN2C` [compound 61, 4-(6-(dimethylamino)pyridin-3-yl)-N-(5-methyl-6-((1S,4S)-5-methyl-2,5-diazabicyclo[2.2.1]heptan-2-yl)pyridin-3-yl)pyrimidin-2-amine] as the molecule, how does the GI50 read?
A: < 1 µM

Q: For `CC(=O)N1CCN(c2ccc(-c3ccnc(Nc4cnc(N5C[C@@H]6C[C@H]5CN6C)c(C)c4)n3)cn2)CC1` [compound 63, 4-(6-(4-acetylpiperazin-1-yl)pyridin-3-yl)-N-(5-methyl-6-((1S,4S)-5-methyl-2,5-diazabicyclo[2.2.1]heptan-2-yl)pyridin-3-yl)pyrimidin-2-amine], which GI50 is on record?
A: 1 to 10 µM
